Data published in patent US20070049593A1 (priority 2004, published 2007).

Each molecule was assayed against T1, HCV polymerase (Hepatitis C virus genotype 1b, UniProt P26663) (assay: biochemical).
T1 construct: a region encoding NS5B (J Virol 1991 March, 65(3), 1105-13, 544 amino acids after deletion of 47 amino acids on the C-terminal); 6xHis (C); made in house; host or cells: Escherichia coli
Design: species or system HCV BK strain
Procedure, shortened: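 Recombinant HCV BK-strain NS5B (C-terminal 47 aa deleted, His6-tagged, E. coli), 0.5 μg/ml, run with 5 μg/ml in vitro-transcribed RNA template (polyU/3′X), ATP/GTP/CTP 50 μM, UTP 2 μM plus [3H]UTP, pH 7.5, 25° C, 90 min. TCA-precipitated RNA counted by scintillation; IC50 from activity with vs without compound.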

T1 sequence (P26663 2420-2963): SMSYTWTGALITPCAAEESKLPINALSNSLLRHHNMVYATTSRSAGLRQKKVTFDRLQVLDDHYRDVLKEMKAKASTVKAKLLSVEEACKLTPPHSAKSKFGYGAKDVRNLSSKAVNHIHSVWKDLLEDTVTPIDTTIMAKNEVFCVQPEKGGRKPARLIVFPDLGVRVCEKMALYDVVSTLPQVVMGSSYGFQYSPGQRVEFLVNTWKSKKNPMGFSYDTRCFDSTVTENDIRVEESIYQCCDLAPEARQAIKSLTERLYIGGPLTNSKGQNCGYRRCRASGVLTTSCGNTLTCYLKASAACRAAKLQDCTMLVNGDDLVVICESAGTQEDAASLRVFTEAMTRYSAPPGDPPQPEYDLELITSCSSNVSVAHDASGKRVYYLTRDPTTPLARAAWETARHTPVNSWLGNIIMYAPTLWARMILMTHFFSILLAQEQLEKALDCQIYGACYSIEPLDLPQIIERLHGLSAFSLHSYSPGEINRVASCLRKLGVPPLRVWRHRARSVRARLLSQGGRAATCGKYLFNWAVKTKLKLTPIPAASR

Compound	IC50 [µM]
COc1ccc2c(c1)OCCn1c-2c(C2CCCCC2)c2ccc(C(=O)N[C@@H](Cc3ccc(O)cc3)c3nc(C)no3)cc21 [Example 2-388, N—[(S)-2-(4-hydroxyphenyl)-1-(3-methyl-1,2,4-oxadiazol-5-yl)ethyl]-12-cyclohexyl-3-methoxy-6,7-dihydro-5-oxa-7a-azadibenzo[a,e]azulene-9-carboxamide]	< 0.1
COc1ccc2c(c1)OCCn1c-2c(C2CCCCC2)c2ccc(C(=O)N[C@@H](Cc3ccc(O)cc3)C(=O)NCCN(C)C)cc21 [Example 2-389, N—[(S)-1-(2-dimethylaminoethylcarbamoyl)-2-(4-hydroxyphenyl)ethyl]-12-cyclohexyl-3-methoxy-6,7-dihydro-5-oxa-7a-azadibenzo[a,e]azulene-9-carboxamide]	< 0.1
COc1ccc2c(c1)OCCn1c-2c(C2CCCCC2)c2ccc(C(=O)NC(C)(C)c3nc4cc(C(=O)NCCO)ccc4[nH]3)cc21 [Example 2-390, N-{1-[5-(2-hydroxyethylcarbamoyl)-1H-benzimidazol-2-yl]-1-methylethyl}-12-cyclohexyl-3-methoxy-6,7-dihydro-5-oxa-7a-azadibenzo[a,e]azulene-9-carboxamide]	< 0.1
COC(=O)[C@H](Cc1ccc(NC(=O)N(C)C)cc1)NC(=O)c1ccc2c(C3CCCCC3)c3n(c2c1)CCOc1cc(OC)ccc1-3 [Example 2-391, methyl (S)-2-[(12-cyclohexyl-3-methoxy-6,7-dihydro-5-oxa-7a-azadibenzo[a,e]azulene-9-carbonyl)amino]-3-[4-(3,3-dimethylureido)phenyl]propionate]	< 0.1
COC(=O)[C@H](Cc1ccc(OCCCO)cc1)NC(=O)c1ccc2c(C3CCCCC3)c3n(c2c1)CCOc1cc(OC)ccc1-3 [Example 2-392, methyl (S)-2-[(12-cyclohexyl-3-methoxy-6,7-dihydro-5-oxa-7a-azadibenzo[a,e]azulene-9-carbonyl)amino]-3-[4-(3-hydroxypropoxy)phenyl]propionate]	< 0.1
COC(=O)C(Cc1ccc(CO)cc1)NC(=O)c1ccc2c(C3CCCCC3)c3n(c2c1)CCOc1cc(OC)ccc1-3 (stereo not shown) [Example 2-393, methyl 2-[(12-cyclohexyl-3-methoxy-6,7-dihydro-5-oxa-7a-azadibenzo[a,e]azulene-9-carbonyl)amino]-3-(4-hydroxymethylphenyl)propionate]	< 0.1
COc1ccc2c(c1)OCCn1c-2c(C2CCCCC2)c2ccc(C(=O)NC(C)(C)c3nc4cccnc4[nH]3)cc21 [Example 2-394, N-[1-(3H-imidazo[4,5-b]pyridin-2-yl)-1-methylethyl]-12-cyclohexyl-3-methoxy-6,7-dihydro-5-oxa-7a-azadibenzo[a,e]azulene-9-carboxamide]	< 0.1
COc1ccc2c(c1)OCCn1c-2c(C2CCCCC2)c2ccc(C(=O)NC(C)(C)c3nc4cc(C(=O)O)ccc4n3CCN3CCOCC3)cc21 [Example 2-395, 2-{1-[(12-cyclohexyl-3-methoxy-6,7-dihydro-5-oxa-7a-azadibenzo[a,e]azulene-9-carbonyl)amino]-1-methylethyl]-1-[2-(morpholin-4-yl)ethyl]-1H-benzimidazole-5-carboxylic acid]	< 0.1
CNC(=O)c1ccc2[nH]c(C(C)(C)NC(=O)c3ccc4c(C5CCCCC5)c5n(c4c3)CCOc3cc(OC)ccc3-5)nc2c1 [Example 2-396, N-[1-methyl-1-(5-methylcarbamoyl-1H-benzimidazol-2-yl)ethyl]-12-cyclohexyl-3-methoxy-6,7-dihydro-5-oxa-7a-azadibenzo[a,e]azulene-9-carboxamide]	< 0.1
COc1ccc2c(c1)OCCn1c-2c(C2CCCCC2)c2ccc(C(=O)NC3(C(=O)Nc4ccc(C(=O)O)cc4)CCN(C)CC3)cc21 [Example 2-397, 4-([4-[(12-cyclohexyl-3-methoxy-6,7-dihydro-5-oxa-7a-azadibenzo[a,e]azulene-9-carbonyl)amino]-1-methylpiperidine-4-carbonyl)amino)benzoic acid]	< 0.1
CCOC(=O)c1ccc(-c2cnc(C(C)(C)NC(=O)c3ccc4c(C5CCCCC5)c5n(c4c3)CCOc3cc(OC)ccc3-5)[nH]2)cc1 [Example 2-398, ethyl 4-(2-{1-[(12-cyclohexyl-3-methoxy-6,7-dihydro-5-oxa-7a-azadibenzo[a,e]azulene-9-carbonyl)amino]-1-methylethyl}-3H-imidazol-4-yl)benzoate]	< 0.1
COc1ccc2c(c1)OCCn1c-2c(C2CCCCC2)c2ccc(C(=O)NC(C)(C)c3ncc(-c4ccc(C(=O)O)cc4)[nH]3)cc21 [Example 2-399, 4-(2-{1-[(12-cyclohexyl-3-methoxy-6,7-dihydro-5-oxa-7a-azadibenzo[a,e]azulene-9-carbonyl)amino]-1-methylethyl}-3H-imidazol-4-yl)benzoic acid]	< 0.1
COc1ccc2c(c1)OCCn1c-2c(C2CCCCC2)c2ccc(C(=O)NC3(C(=O)O)CCOCC3)cc21 [Example 2-400, 4-[(12-cyclohexyl-3-methoxy-6,7-dihydro-5-oxa-7a-azadibenzo[a,e]azulene-9-carbonyl)amino]tetrahydropyran-4-carboxylic acid]	< 0.1
COc1ccc2c(c1)OCCn1c-2c(C2CCCCC2)c2ccc(C(=O)NC3(C(=O)Nc4ccc(/C=C/C(=O)O)cc4)CCOCC3)cc21 [Example 2-401, (E)-3-[4-({4-[(12-cyclohexyl-3-methoxy-6,7-dihydro-5-oxa-7a-azadibenzo[a,e]azulene-9-carbonyl)amino]tetrahydropyran-4-carbonyl}amino)phenyl]acrylic acid]	< 0.1
COc1ccc2c(c1)OCCn1c-2c(C2CCCCC2)c2ccc(C(=O)NC3(C(=O)Nc4ccc(C(=O)O)cc4)CCOCC3)cc21 [Example 2-402, 4-({4-[(12-cyclohexyl-3-methoxy-6,7-dihydro-5-oxa-7a-azadibenzo[a,e]azulene-9-carbonyl)amino]tetrahydropyran-4-carbonyl}amino)benzoic acid]	< 0.1
COc1ccc2c(c1)OCCn1c-2c(C2CCCCC2)c2ccc(C(=O)NC(C)(C)c3nc4cc(C(=O)O)ccc4c(=O)[nH]3)cc21 [Example 2-403, 2-{1-[(12-cyclohexyl-3-methoxy-6,7-dihydro-5-oxa-7a-azadibenzo[a,e]azulene-9-carbonyl)amino]-1-methylethyl}-4-oxo-3,4-dihydroquinazoline-7-carboxylic acid]	< 0.1
COc1ccc2c(c1)OCCn1c-2c(C2CCCCC2)c2ccc(C(=O)NC(C)(C)c3nc(N(C)C)c4ccc(C(=O)O)cc4n3)cc21 [Example 2-404, 2-{1-[(12-cyclohexyl-3-methoxy-6,7-dihydro-5-oxa-7a-azadibenzo[a,e]azulene-9-carbonyl)amino]-1-methylethyl]-4-dimethylaminoquinazoline-7-carboxylic acid]	< 0.1
COc1ccc2c(c1)OCCn1c-2c(C2CCCCC2)c2ccc(C(=O)NC(C)(C)c3nc4cc(CO)ccc4[nH]3)cc21 [Example 2-405, N-[1-(5-hydroxymethyl-1H-benzimidazol-2-yl)-1-methylethyl]-12-cyclohexyl-3-methoxy-6,7-dihydro-5-oxa-7a-azadibenzo[a,e]azulene-9-carboxamide]	< 0.1
COc1ccc2c(c1)OCCn1c-2c(C2CCCCC2)c2ccc(C(=O)NC3(C(=O)Nc4ccc(C(C)(C)C(=O)O)cc4)CCC3)cc21 [Example 2-406, 2-[4-({1-[(12-cyclohexyl-3-methoxy-6,7-dihydro-5-oxa-7a-azadibenzo[a,e]azulene-9-carbonyl)amino]cyclobutanecarbonyl}amino)phenyl]-2-methylpropionic acid]	< 0.1
COC(=O)Nc1ccc(C[C@H](NC(=O)c2ccc3c(C4CCCCC4)c4n(c3c2)CCOc2cc(OC)ccc2-4)c2nc(C)no2)cc1 [Example 2-407, methyl {4-[(S)-2-[(12-cyclohexyl-3-methoxy-6,7-dihydro-5-oxa-7a-azadibenzo[a,e]azulene-9-carbonyl)amino]-2-(3-methyl-1,2,4-oxadiazol-5-yl)ethyl]phenyl}carbamate]	< 0.1
COc1ccc2c(c1)OCCn1c-2c(C2CCCCC2)c2ccc(C(=O)NC(C)(C)c3nc4ccccc4[nH]3)cc21 [Example 2-408, N-[1-(1H-benzimidazol-2-yl)-1-methylethyl]-12-cyclohexyl-3-methoxy-6,7-dihydro-5-oxa-7a-azadibenzo[a,e]azulene-9-carboxamide]	< 0.1
COc1ccc2c(c1)OCCn1c-2c(C2CCCCC2)c2ccc(C(=O)NC3(c4nc5ccc(C(=O)O)cc5[nH]4)CCOCC3)cc21 [Example 2-409, 2-{4-[(12-cyclohexyl-3-methoxy-6,7-dihydro-5-oxa-7a-azadibenzo[a,e]azulene-9-carbonyl)amino]tetrahydropyran-4-yl]-3H-benzimidazole-5-carboxylic acid]	< 0.1
COc1ccc2c(c1)OCCn1c-2c(C2CCCCC2)c2ccc(C(=O)N[C@@H](Cc3ccc(NC(=O)OCc4ccccc4)cc3)c3csc(C)n3)cc21 [Example 2-410, benzyl (4-[(S)-2-[(12-cyclohexyl-3-methoxy-6,7-dihydro-5-oxa-7a-azadibenzo[a,e]azulene-9-carbonyl)amino]-2-(2-methylthiazol-4-yl)ethyl]phenyl}carbamate]	< 0.1
COc1ccc2c(c1)OCCn1c-2c(C2CCCCC2)c2ccc(C(=O)NC(C)(C)c3nc4cc(/C=C/C(=O)O)ccc4[nH]3)cc21 [Example 2-411, (E)-3-(2-{1-[(12-cyclohexyl-3-methoxy-6,7-dihydro-5-oxa-7a-azadibenzo[a,e]azulene-9-carbonyl)amino]-1-methylethyl}-1H-benzimidazol-5-yl)acrylic acid]	< 0.1
COc1ccc2c(c1)OCCn1c-2c(C2CCCCC2)c2ccc(C(=O)NC(C)(C)c3nc4cc(CCC(=O)O)ccc4[nH]3)cc21 [Example 2-412, 3-(2-{1-[(12-cyclohexyl-3-methoxy-6,7-dihydro-5-oxa-7a-azadibenzo[a,e]azulene-9-carbonyl)amino]-1-methylethyl}-1H-benzimidazol-5-yl)propionic acid]	< 0.1
